“Also recorded” adds a separate entry of the source.
Key:
[1] = test system: enterobacteria present in the colon; conditions: oral treatment; azithromycin daily dose of 500 mg; cited from earlier work
[2] = test system: erythrocyte; conditions: MIC for many bacteria; cited from earlier work
[3] = BioDis (USP III) release test in simulated human gastrointestinal fluids; type: physicochemical; conditions: Biodiss system; successively soaked in simulated gastric, proximal jejunum, late jejunum, ileum and colon fluids (FIG. 2)
Protocol: In a particular embodiment, the intermediate coating is selected in order to achieve a delayed and/or controlled release of the antibacterial, as measured by in vitro testing such as BioDis dissolution tester (USP III release apparatus). In this system, the dosage form is successively placed into glass tubes (filled with approx 200 mL of dissolution media) corresponding to the different sections of the gastrointestinal tract, such as described by Fotaki and Coll, in European Journal of Pharmaceutics and Biopharmaceutics 73 (2009) 115-120. This allows a good simulation of in vivo release before testing into mammals. pH, fed state and various other physiological conditions can be tested. Using the BioDis system, it is possible for those skilled in the art to finely tune the formulation to achieve a desired pre-determined delayed release. It will be understood that this method is also useful for testing any kind of drug delivery system intended to deliver the antimicrobial(s) in a desired part of the intestine.
Legend: FIG. 1: Release of azithromycine in simulated human gastrointestinal tract using a Biodis system. The azithromycin cellet formulation, coated with 35% FS30D (Batch GL-058B4), is successively soaked into simulated fluids such as gastric, proximal jejunum, late jejunum, Ileum and colon. […]

Row | Molecule | elimination of enterobacteria from the colon [1] | further results
1 | CC[C@H]1OC(=O)[C@H](C)[C@@H](O[C@H]2C[C@@](C)(OC)[C@@H](O)[C@H](C)O2)[C@H](C)[C@@H](O[C@@H]2O[C@H](C)C[C@H](N(C)C)[C@H]2O)[C@](C)(O)C[C@@H](C)C(=O)[C@H](C)[C@@H](O)[C@]1(C)O [erythromycin] | eliminated from the lumen | –
2 | gramicidin S | – | concentration causing erythrocyte lysis relative to the MIC [2]: threefold higher than the MIC
3 | colistin | – | Release of colistin in simulated human gastrointestinal tract [3]: improves the release of colistin; also recorded: prevent from total colistin release
4 | CC[C@H]1OC(=O)[C@H](C)[C@@H](O[C@H]2C[C@@](C)(OC)[C@@H](O)[C@H](C)O2)[C@H](C)[C@@H](O[C@@H]2O[C@H](C)C[C@H](N(C)C)[C@H]2O)[C@](C)(O)C[C@@H](C)CN(C)[C@H](C)[C@@H](O)[C@]1(C)O [Azithromycin] | effective to eliminate Gram-negative enterobacteria from the colon | –

From patent US20120058936A1, “COMPOSITIONS AND METHODS FOR ELIMINATION OF GRAM NEGATIVE BACTERIA” (ASSISTANCE PUBLIQUE - HOPITAUX DE PARIS, priority 2009, published 2012)
